Measured values as given in patent publication US20090197805A1, “Insulin receptor antagonists and related compositions, uses and methods” (Novo Nordisk A/S, priority 2005, published 2009).
Ends that are not written are not given here.

Columns and labels:
insulin receptor = insulin receptor (Homo sapiens, UniProt P06213); assay: Competition binding assay with 125I-labeled cognate ligand, insulin receptor; settings: 125I-labeled ligand
Method: (§1) To test the selectivity of PIRA S661 for the insulin receptor versus a related receptor, the IGF1 receptor, competition binding assays were carried out using both receptors and their cognate ligands in ^125I-labeled form.

SGBS cells = assay: PIRA antagonist assay: insulin stimulated 14C-glucose uptake; assay type: cell-based; settings: SGBS cells (human adipocyte cell line); FIG. 1
Method: In order to identify an insulin receptor binding peptide as an antagonist (PIRA), a candidate peptide can be tested in a glucose uptake assay in e.g. SGBS cells (a human adipocyte cell line) or primary rodent adipocytes. Briefly, the cells are incubated with various concentrations of insulin and subsequently ^14C-glucose uptake is measured. To test a peptide for antagonist properties, a submaximally stimulating concentration of insulin (e.g., resulting in half maximal insulin response) is added and also a dilution series of the peptide to be tested. If the peptide is a PIRA, the insulin induced response is reduced to or below the baseline response with increasing concentration of PIRA and the potency of the PIRA can be estimated from the concentration of PIRA necessary to observe the reduction in response.

Zucker Obese rats [1] = assay: Glucose profile after i.v. S661 followed after different times by i.p. human insulin; assay type: in vivo, rat; settings: 30 nmol/kg S661 i.v. at various times before 30 nmol/kg human insulin i.p., FIG. 3
Method: FIG. 3. Glucose profile in ZO rats after i.v. administration of Insulin Receptor Antagonist, S661, followed after different times by i.p. administration of human insulin.
Eight groups of 5 to 7 male, 15 week old Zucker Obese rats (Charles River) with an average weight of about 550 gram were kept on ad lib Purina 5008 and ad lib drinking water and fasted overnight for the experiment. PIRA S661 in PBS was administered i.v. at 30 nmol/kg at various times before the i.p. administration of 30 nmol/kg human insulin in PBS.

IGF1 receptor = IGF1 receptor (Homo sapiens, UniProt P08069); assay: Competition binding assay with 125I-labeled cognate ligand, IGF1 receptor; settings: 125I-labeled ligand, affinity too low to be measured
Method: as §1

Zucker Obese rats [2] = assay: Glucose profile after i.v. S661 at different doses followed by i.p. human insulin; assay type: in vivo, rat
Method: FIG. 2. Glucose profile in Zucker obese (ZO) male rats after intravenous (i.v.) administration of different doses of peptidic insulin receptor antagonist S661, followed by intraperitoneal (i.p.) administration of human insulin.
Nine groups of 5 or 6 male, 16 week old Zucker Obese rats (Charles River) with an average weight of about 580 gram were kept on ad lib Purina 5008 and ad lib drinking water and fasted overnight for the experiment. The glucose level was tested at 20 minutes and 10 minutes prior to administration of the PIRA designated S661 (described above) Intravenous (i.v.) administration of different doses of S661 in PBS or vehicle was followed by (10 minutes after administration of S661) intraperitoneal (i.p.) administration of different amounts of human insulin in PBS or vehicle. Blood glucose levels were measured at 10, 20, 30, 40, 60, 80, 120, and 180 minutes after injection of insulin.

[3] = 3 nmol/kg S661 i.v., 30 nmol/kg insulin i.p., Zucker Obese rats

affinity for the insulin receptor relative to human insulin (insulin receptor): 48 % of that of human insulin
Substance: GSLDESFYDWFERQLGGGSGGSSLEEEWAQIQCEVWGRGCPSY-amide (GSLDESFYDWFERQLGGGSGGSSLEEEWAQIQCEVWGRGCPSY-NH2; cysteine pairing not given here) [S661, peptidic insulin receptor antagonist]
effect on submaximally insulin stimulated glucose uptake (SGBS cells): inhibition of submaximally insulin stimulated glucose uptake
time after administration at which still an effective antagonist (blood glucose) (Zucker Obese rats [1]): ≥ 6 h
affinity for the IGF1 receptor relative to IGF1 (IGF1 receptor): at least 200.000 fold lower than that of IGF1
glucose levels as compared to control (Zucker Obese rats [2]; [3]): slightly higher
glucose levels as compared to insulin alone (Zucker Obese rats [2]; [3]): significantly higher levels
blood glucose levels versus insulin alone or only vehicle (Zucker Obese rats [2]; male Zucker Obese rats, fasted, S661 i.v. 10 minutes before i.p. human insulin, FIG. 2): significantly higher
